Columns and labels:
PC12T cells = assay: cellular systems biology profile of GFP-Htt aggregate formation with compound treatment; type: cell-based
Method: To test if there was an interrelationship between the modulation of the microtubule cytoskeleton and the formation of huntingtin protein (Htt) aggregates, cells were induced to produce fluorescently labeled huntingtin protein (GFP-Htt). Soon thereafter, the same Cells were treated with a set of compounds including several microtubule modulators. Cellular systems biology profiling can be used to define the interrelationships between several cellular features including microtubule cytoskeletal stability, cell cycle regulation, GFP-Htt aggregate formation, and nuclear morphology.
In one embodiment, 7.5×10^+6 PC12T cells were plated into T25 tissue culture flasks and panasterone A was added to a final concentration of 5 μM. After an overnight incubation, the cells were trypsinized and replated onto collagen I coated 384-well microplates at a density of 10000 cells per well in medium containing 1 μM panasterone A (24 h after the first panasterone A treatment began). Cells were treated for 26 h with 14 compounds at 12 concentrations each ranging from <1 nM to 50 μM. At the end of the incubation period, cells were fixed with 3.7% formaldehyde, permeabilized with 0.5% Triton X-100 detergent, and labeled with primary-secondary antibody pairs to measure microtubule stability (α-tubulin) and mitotic events (phospho-histone […]). Cells were also labeled with Hoechst 33342 (5 μg/ml) to provide measurements of cell cycle regulation (DNA content), changes in cell number, and multiple nuclear morphology measurements including chromatin condensation and nuclear size and shape.
To build a cellular systems biology profile of the cellular response to GFP-Htt aggregation and compound treatment, the following example cellular systems biology response profile features can be calculated from responses of cell populations either expressing GFP-Htt or not expressing GFP-Htt that can be separated mathematically from each other and analyzed separately.

PC12-HttQ103 cells = assay: cellular systems biology model of Huntington's Disease, mutant huntingtin-GFP expression; type: cell-based, rat
Method: FIG. 10 are example cellular systems biology profiling images for a model of Huntington's Disease (HD). PC12-HttQ103 cells were seeded in 384-well plates +/− NGF (100 ng/ml). At two days post-seeding cells were induced with 200 nM RSL1 +/− NGF (100 ng/ml) for 48 h. Following fixation, cells were stained with Hoechst and with antibodies raised against tubulin and phospho c-Jun. Tubulin was detected with a donkey anti mouse Cy3 conjugated secondary antibody and phospho c-Jun was visualized with a donkey anti rabbit Cy5 conjugated secondary antibody. Images were captured with an HCS instrument and Hoechst-stained nuclei, mutant huntingtin-GFP expression, phospho c-Jun labeled nuclei, and tubulin-stained cells are shown. […]
FIG. 11 is a graph illustrating that mutant huntingtin aggregation correlates with cell loss. […] Images were captured with an HCS instrument and the cell number and % cells with aggregates were determined with standard imaging algorithms. […]
FIG. 14. are graphs illustrating little correlation between aggregate formation and differentiation PC12-Htt-Q103 cells were treated and stained as stated in FIG. 10. Aggregate formation in untreated and NGF-treated populations was measured with standard imaging algorithms. Mean neurite count and mean branch point distance form the cell body was also measured. […]

SMILES | compound induced modulation of cell cycle regulation (2 n/4 n distribution ratio) (PC12T cells; cells with GFP-Htt aggregates versus cells without aggregates, 26 h treatment) | sensitivity to the microtubule destabilizing activity (PC12T cells; cells with aggregates versus cells without aggregates) | Nocodazole-induced cell cycle regulation and nuclear morphological changes (PC12T cells; in cells containing GFP-Htt aggregates) | cell number (PC12-HttQ103 cells; 200 nM RSL1, as a function of treatment time) | % cells with aggregates (PC12-HttQ103 cells; 200 nM RSL1 induction) [%]
COC(=O)Nc1nc2ccc(C(=O)c3cccs3)cc2[nH]1 [nocodazole] | less responsive | greater sensitivity | partially inhibited |  | 
CCc1c(OC)cccc1C(=O)NN(C(=O)c1cc(C)cc(C)c1)C(C)(C)C [RSL1] |  |  |  | decreased | 50
